Experiment [1] deals with axonal mitochondrial transport in DRG neurons. The experiment can be described thus: FRAP of Mito-GFP in distal axons of DRG neurons. In kind it is cell-based, rat. Conditions: for effect on MAG-Fc-dependent decrease in Mito-GFP recovery / mitochondrial transport: pretreatment: TubA 10 μM, Y27632 10 μM or BAPTA-AM 3 μM. As to the method: MAG or Aggrecan exposures were performed as bath application or on coated substrates. For bath application, dissociated DRGs were cultured for 48 h and treated with 25 μg/ml of MAG-Fc (R&D Systems; 538-MG), 25 μg/ml Fc control (R&D Systems; 110-HG), or 10 μg/ml of Aggrecan (Sigma-Aldrich; A1960) for 4 h. Cultures were pretreated with either Ca^2+ chelator BAPTA-AM (3 μM; Sigma-Aldrich; A1076), ROCK inhibitor Y27632 (10 μM; Sigma-Aldrich; SCM075), HDAC6 inhibitor TubA (10 μM; R&D Systems; 6270), Thapsigargin (1 μM; Sigma-Aldrich; T9033), Rho Activator II (1 μg/ml; Cytoskeleton; CNO3), or equivalent volume DMSO 30 min before MAG-Fc, Aggrecan, or controls. For substrate-bound experiments, adult DRGs were cultured on glass bottom dishes (Greiner) that were coated with 25 μg/ml Aggrecan in addition to the laminin/poly-D-lysine substrate.
Mito-KR- and Mito-GFP-expressing DRG neurons were used for FRAP analyses at 48-72 h after transfection. To evaluate mitochondrial motility in Mito-KR-expressing neurons, Mito-KR signals were photobleached using continual exposure to an argon laser set at 594 nm for 30 s (100% laser power) The bleached ROI was then monitored for recovery using an argon laser set at 580 nm every 10 s over 16 min (13% laser power). For FRAP analyses with Mito-GFP, GFP signals were photobleached in a 50 μm ROI using an argon laser set at 488 nm every 10 s for 16 min (70% laser power). The same excitation was used for post-bleach imaging to assess recovery every 10 s for 16 min. For axon shaft FRAP experiments in Mito-GFP-expressing neurons, ROIs of ˜50 μm in length (without branches) were imaged >100 μm proximal to the growth cone. Prebleach, bleach, and post-bleach sequences were the same as for Mito-GFP above. In all cases, neurons were imaged over 40 s or more to acquire baseline Mito-KR or Mito-GFP signals before photobleaching using an argon laser (580 nm at 13% power for Mito-KR and 488 nm at 31% power for Mito-GFP).
Vesicle trafficking was quantified using differential ImageJ Difference Tracker Plug-in (Andrews et al., 2010). 50-80-μm long unbranched axon segments at approximately the mid-region between growth cone and cell body were analyzed. Kymographs were generated using ImageJ Kymograph Plug-in. For analyses of axon retraction in the CALI experiment, the distance from the distal tip of the growth cone in the pre-CALI image sequence was used as the baseline (t=1 min). The distance between the growth tip at end of the post-CALI sequence and the pre-CALI baseline was measured using LAS-X software. Movement of ≥0.5 μm toward the axon shaft was counted as retracted. Fluorescence emission of the Mito-KR post-CALI was analyzed using ImageJ. For normalizing intensities across FRAP image sets, fluorescence intensity at each time point was scaled using the LAS-X FRAP module so that the residual fluorescence signal at t=0 min (post-bleach) was set at 0 and the prebleach intensity was set at 100% for each bleached ROI. For axon shaft FRAP analyses, each 50-μm bleached ROI was divided into […], and the fluorescence intensity recovery was measured as described above. EMs at 1,900× and 4,800× magnification across the crosssectional surface of each sciatic nerve were used for in vivo analyses of mitochondrial content. A minimum of 75 unmyelinated axons was analyzed for each nerve. All unmyelinated axons from each analyzed image were included for quantitative studies. The total number of mitochondria was determined in each unmyelinated axon in the field and was divided by the total number of unmyelinated axons for all subjects. […] was determined by changes in JC-1 fluorescence. JC-1 exists either as a green fluorescent monomer at depolarized membrane potentials or as an orange-red fluorescent aggregate at hyperpolarized membrane potentials. […]

The next experiment has as its system Ac-histone H4. The experiment can be described thus: Immunoblotting for Ac-histone H4 in adult DRG neurons (HDAC specificity). In kind it is cell-based, rat. As to the method: We tested for this specificity in the adult DRG neurons from above by immunoblotting. […] (A) Number of mitochondria in growth cones after exposing DRG cultures to 10 μM TubA versus vehicle (control) for 1 h is shown as average fold-change in number of mitochondria per growth cone±SEM (n=13 axons across three culture preparations; *, P≤0.05 by one-way ANOVA with Bonferroni post hoc analysis). (B) Representative EMs of Remak bundles (arrowheads) in naive Sciatic nerve and nerves after 2 h vehicle (DMSO) or TubA injection are shown. Arrows indicate mitochondria in the unmyelinated axons. Note that a Schwann cell nucleus (asterisk) is seen in the Remak bundle for DMSO image but not the other two micrographs (scale bar=3 μm). (C) Quantification of number of mitochondria per unmyelinated axon from EM images as in B is shown as average±SEM (n≥5; *****, P≤0.0001 by one-way ANOVA with Bonferroni post hoc analysis). (D-F) Quantification for indicated parameters for mitochondrial transport in sciatic nerve in vivo using tetramethylrhodamine, ethyl ester, perchlorate to visualize mitochondria is shown.
For immunoblotting, protein lysates or immunoprecipitates were denatured by boiling in Laemmli sample buffer, fractionated by SDS-PAGE, and transferred to nitrocellulose membranes. Blots were blocked for 1 h at room temperature with 5% nonfat dry milk in TBS with 0.1% Tween 20 (TBST). Primary antibodies diluted in 5% BSA in TBST were added to the membranes and incubated overnight at 4° C. with rocking. Primary antibodies consisted of rabbit anti-Myc (1:2,000; Cell Signaling; 71D10), rabbit anti-RHOT1 antibody (1:1,000; Aviva Systems Biology; ARP44817 P050), rabbit anti-HDAC6 antibody (1:2,000; Cell Signaling; 7558), rabbit anti-ERK1 (1:5,000; Abcam; ab32537), and affinity-purified custom rabbit anti-Miro1-AcK105 (1:2,500; Twiss laboratory, see above) antibodies. For the anti-Miro1-AcK105 antibody, preimmune and test-bleed sera were used at 1:1,000 dilutions to initially evaluate for specificity. After washing in TBST, blots were incubated with HRP-conjugated anti-rabbit IgG antibodies (1:5,000; Jackson Immunoresearch) diluted in blocking buffer for 1 h at room temperature. Signals were detected using ECL Prime (GE Healthcare) after extensive washing.
(In general: Immunoblotting shows a protein as a band on a membrane.)

These results are taken from US20210330756A1, “Acetylation of Miro1” (University of South Carolina, priority 2020, published 2021).

For the compound `CC(=O)OCOC(=O)CN(CC(=O)OCOC(C)=O)c1ccccc1OCCOc1ccccc1N(CC(=O)OCOC(C)=O)CC(=O)OCOC(C)=O` [BAPTA-AM], in experiment [1] (3 μM), the “basal Mito-GFP FRAP recovery after the first 5 min” value is listed as “no different than recovery in untreated cultures” and the “basal Mito-GFP FRAP recovery in distal axons, first 5 min after bleach” value is recorded as “increased recovery”. Further, in experiment [1] (3 μM BAPTA-AM + 1 μg/ml Rho activator, 960 s after bleach), the “effect on decrease in axonal mitochondrial transport seen upon direct activation of RhoA” value was “completely abrogated the decrease in axonal mitochondrial transport”. Besides, in experiment [1] (MAG-Fc, Mito-GFP FRAP), the “additive or synergistic effect when combined with 10 μM TubA” value is “No significant additive effects”. Besides, the “effect on MAG-Fc-dependent decrease in Mito-GFP recovery / mitochondrial transport” value in experiment [1] (960 s after bleach) is given as “prevented the MAG-Fc attenuation of axonal mitochondrial transport”.
With `O=C(CCCCCN1C(=O)c2cccc3cccc(c23)C1=O)NO` [Scriptaid], the “Ac-histone H4 levels” value in the experiment on Ac-histone H4 (Scriptaid, concentration not given) is “clear increase in Ac-histone H4 levels”.
Take `C[C@@H](N)[C@H]1CC[C@H](C(=O)Nc2ccncc2)CC1` [Y27632]: in experiment [1] (MAG-Fc, Mito-GFP FRAP), the “additive or synergistic effect when combined with 3 μM BAPTA-AM” value is listed as “no additive or synergistic effect” and the “additive or synergistic effect when combined with 10 μM TubA” value is given as “no additive or synergistic effect”. The “additive effect when combined with 10 μM TubA” value in experiment [1] (aggrecan 10 μg/ml, Mito-GFP FRAP) is “no significant additive effects”. Further, in experiment [1] (aggrecan 10 μg/ml, TubA 10 μM or Y27632 10 μM), the “effect on aggrecan-dependent decrease in Mito-GFP recovery” value was “prevented the aggrecan dependent decrease in Mito-GFP recovery”. Moreover, the “effect on MAG-Fc-dependent decrease in Mito-GFP recovery / mitochondrial transport” value in experiment [1] (960 s after bleach) is given as “similarly blocked the decline in mitochondrial transport”. Moreover, the “effect on MAG-Fc-dependent decrease in Mito-GFP recovery / mitochondrial transport” value in experiment [1] (960 s after bleach, listed as ROCK inhibitor) was “similarly prevented the MAG-dependent decrease in mitochondrial transport”.
For `O=C(CCCN1C(=O)c2cccc3cccc(c23)C1=O)NO` [Nullscript], the “Ac-histone H4 levels” value in the experiment on Ac-histone H4 (6.3 μM) is “no change in Ac-histone H4 levels”.
